From patent publication US9937227B2, “Humanin, analogs and cancer treatment methods and uses thereof” (LOS ANGELES BIOMEDICAL RESEARCH INSTITUTE AT HARBOR-UCLA …, priority 2014, dated 2018)
Like-named read-outs stand apart in the source and are kept apart here.

Legend:
Leydig cells [1] = assay: Histology of rat testes: Leydig cells; details: EDS for three days
testosterone = details: with or without EDS pre-treatment
male germ cells [2] = test system: male germ cells
B16 melanoma cells = format: cell-based
Source text: Furthermore, the autophagy induction of humanin may be related to its apparent effects of enhancing longevity observed in other systems.

[3] = Table 1; cited from earlier work
Leydig cells [4] = assay: Testosterone of cultured Leydig cells treated with ketoconazole; format: cell-based, rat; details: KTZ 10 mcg/ml, 4 hours
Procedure: Leydig cells were isolated based on a previously described procedure (Gao, et al., 1996; Klinefelter, et al., 1987; Salva, et al., 2001). Briefly, the testes were decapsulated, and then dissociated with collagenase, dispase, DNase and shaking for 15 min at 34° C. The seminiferous tubules were removed by filtration through 40 μm nylon mesh (BD Falcon, Franklin Lakes, N.J.). Leydig cells were then harvested after centrifugation and purified using a Percoll gradient (GE Healthcare, Uppsala, Sweden) and centrifugation (60 minutes at 20,000 g at 4° C.). Enriched Leydig cells were harvested at densities between 1.065 (red) and 1.075 (blue) g/cm^3 from the percoll gradient. These Leydig cells were washed by diluting the percoll and excluding residual germ cells and other cells using a BSA density gradient with centrifugation. The purity of the Leydig cells was >90%, as determined by histochemical staining for 3β-hydroxysteroid dehydrogenase. The cell viability, as assessed by trypan blue exclusion, was greater than 90%. […]
Testosterone concentrations in plasma, testes, and culture medium were measured by a previously described radioimmunoassay (Lue, et al., 2010) with a minimal detection limit of 0.1 ng/ml. […]

male germ cells [5] = format: in vivo, mouse; details: middle stages
Procedure: Onco-infertility is a major concern of cancer survivors. In this study, it was investigated whether HNG will prevent chemotherapy (Temozolomide, TMZ, an alkylating agent used clinically to treat brain tumors) induced male germ cell apoptosis in SCID mice bearing subcutaneous implants of human medulloblastoma. DAOY human pediatric medulloblastoma cells (1.0×10^8 cells/animal) were injected subcutaneously into the right flank of 7-week old male SCID mice. After 3 weeks to allow tumor growth, each group of mice (n=4 to 5/group) received one of the following treatments: 1) vehicle (control); 2) HNG intra-peritoneal (IP) injection (HNG, 5 mg/Kg BW/day, 3 days pretreatment +5 days treatment); 3) TMZ IP injection (TMZ, 50 mg/Kg BW/day×5 days); 4) TMZ and HNG IP injections (TMZ+HNG). Mice were sacrificed 24 hours after the last injection, subcutaneous tumors were dissected and weighed (FIG. 26) and male germ cell apoptosis was assessed by TUNEL staining and quantified (Apoptosis Index, AI, number of apoptotic germ cell/Sertoli cell, FIG. 27). […] HNG ameliorated TMZ-induced germ cell apoptosis without affecting the chemotherapeutic effect on transplanted medulloblastoma tumor in an immunocompromised mouse model.

## CS(=O)(=O)OCCOS(C)(=O)=O [EDS, ethane dimethanesulfonate]
Leydig cells [1]
  Leydig cells in the interstitial spaces compared to control: depletion of Leydig cells
testosterone
  intratesticular testosterone levels: decreased to very low levels
  serum testosterone levels: decreased to very low levels
Male germ cells [2]; early (I-VI) and late (IX-XIV) stages, EDS pre-treated
  germ cell apoptosis compared to control: did not significantly increase
Male germ cells [2]; middle (VII-VIII) stages, EDS 80 mg/kg pre-treatment
  germ cell apoptosis compared to control: significant acute cytotoxic effects

## Cn1cnc(=N)c2[nH]cnc21 [3-MA]
B16 melanoma cells
  additive effect of humanin in doxorubicin treated B16 cells, with autophagy inhibitor: diminished

## MAPRGFSALLLLTSEIDLPVKRRA [HN-C8A, HN mutant, Cys8 to Ala]
[3]
  Cytoprotective Action: Not effective, prevents

## CC(=O)N1CCN(c2ccc(OCC3COC(Cn4ccnc4)(c4ccc(Cl)cc4Cl)O3)cc2)CC1 (centres unmarked) [KTZ, ketoconazole]
Leydig cells [4]
  testosterone levels compared to control: lowered the testosterone levels significantly

## CCN(CC)CCCC(C)Nc1ccnc2cc(Cl)ccc12 (centres unmarked) [chloroquine]
B16 melanoma cells
  additive effect of humanin in doxorubicin treated B16 cells, with autophagy inhibitor: diminished

## Cn1nnc2c(C(N)=O)ncn2c1=O [TMZ, Temozolomide]
Male germ cells [5]
  Apoptosis Index (AI, apoptotic germ cell/Sertoli cell): 0.058±0.006

## MAPRGASCLLLLTSEIDLPVKRRA [HN-F6A]
[3]
  Cytoprotective Action: Similar/more effective
